Assay results from the supplement of paper PMC11061612.

Columns and labels:
[1] = tested on: LOUCY (T-Lymphoblastic Leukemia); assay: Bliss excess, mean over the matrix (fraction); higher = more synergy
Procedure, shortened: (§1)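 After 24 hours at 37°C and 5% CO2 in 1536-well plates, cells in DMEM/F12 or RPMI plus 10% FBS received two-drug dose matrices for 72 hours. Viability came from CellTiter-Glo 2.0 luminescence and was scaled as inhibition, anchored at 0 by vehicle wells and at 1 by blank wells. Combination Emax is taken as the second-highest inhibition in the matrix, and Bliss excess as the observed combination effect less EA + EB − EA·EB, with EA and EB the single-agent effects.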

[2] = tested on: PANC-02-03 (Pancreatic Carcinoma); assay: as above
Procedure, shortened: as §1

CHL-1 (Melanoma) [3] = assay: as above
Procedure, shortened: as §1

[4] = tested on: CML-T1 (Chronic Myelogenous Leukemia); assay: as above
Procedure, shortened: as §1

[5] = tested on: OV-90 (Ovarian Carcinoma); assay: as above
Procedure, shortened: as §1

[6] = tested on: NCI-H810 (Non-Small Cell Lung Carcinoma); assay: as above
Procedure, shortened: as §1

[7] = tested on: NKM-1 (Acute Myeloid Leukemia); assay: as above
Procedure, shortened: as §1

[8] = tested on: COLO-684 (Endometrial Carcinoma); assay: as above
Procedure, shortened: as §1

[9] = tested on: SK-MM-2 (Plasma Cell Myeloma); assay: as above
Procedure, shortened: as §1

[10] = tested on: LAMA-84 (Chronic Myelogenous Leukemia); assay: as above
Procedure, shortened: as §1

[11] = tested on: RMG-I (Ovarian Carcinoma); assay: as above
Procedure, shortened: as §1

[12] = tested on: PC-14 (Lung Adenocarcinoma); assay: as above
Procedure, shortened: as §1

[13] = tested on: HCC-44 (Lung Adenocarcinoma); assay: as above
Procedure, shortened: as §1

[14] = tested on: EB-3 (Burkitt's Lymphoma); assay: as above
Procedure, shortened: as §1

[15] = tested on: SW684 (Other Solid Carcinomas); assay: as above
Procedure, shortened: as §1

[16] = tested on: KYSE-70 (Esophageal Squamous Cell Carcinoma); assay: as above
Procedure, shortened: as §1

[17] = tested on: Becker (Low Grade Glioma); assay: as above
Procedure, shortened: as §1

[18] = tested on: FLO-1 (Esophageal Adenocarcinoma); assay: as above
Procedure, shortened: as §1

KYM-1 (Rhabdomyosarcoma) [19] = assay: as above
Procedure, shortened: as §1

[20] = tested on: NCI-H1755 (Lung Adenocarcinoma); assay: as above
Procedure, shortened: as §1

[21] = tested on: LOUCY (T-Lymphoblastic Leukemia); assay: combination Emax (second highest fraction inhibited in the dose matrix, 72 h); higher = more inhibition; extreme values may be limits of the assay
Procedure, shortened: as §1

[22] = tested on: PANC-02-03 (Pancreatic Carcinoma); assay: as above
Procedure, shortened: as §1

CHL-1 (Melanoma) [23] = assay: as above
Procedure, shortened: as §1

[24] = tested on: CML-T1 (Chronic Myelogenous Leukemia); assay: as above
Procedure, shortened: as §1

[25] = tested on: OV-90 (Ovarian Carcinoma); assay: as above
Procedure, shortened: as §1

[26] = tested on: NCI-H810 (Non-Small Cell Lung Carcinoma); assay: as above
Procedure, shortened: as §1

[27] = tested on: NKM-1 (Acute Myeloid Leukemia); assay: as above
Procedure, shortened: as §1

[28] = tested on: COLO-684 (Endometrial Carcinoma); assay: as above
Procedure, shortened: as §1

[29] = tested on: SK-MM-2 (Plasma Cell Myeloma); assay: as above
Procedure, shortened: as §1

[30] = tested on: LAMA-84 (Chronic Myelogenous Leukemia); assay: as above
Procedure, shortened: as §1

[31] = tested on: RMG-I (Ovarian Carcinoma); assay: as above
Procedure, shortened: as §1

[32] = tested on: PC-14 (Lung Adenocarcinoma); assay: as above
Procedure, shortened: as §1

[33] = tested on: HCC-44 (Lung Adenocarcinoma); assay: as above
Procedure, shortened: as §1

[34] = tested on: EB-3 (Burkitt's Lymphoma); assay: as above
Procedure, shortened: as §1

[35] = tested on: SW684 (Other Solid Carcinomas); assay: as above
Procedure, shortened: as §1

[36] = tested on: KYSE-70 (Esophageal Squamous Cell Carcinoma); assay: as above
Procedure, shortened: as §1

[37] = tested on: Becker (Low Grade Glioma); assay: as above
Procedure, shortened: as §1

[38] = tested on: FLO-1 (Esophageal Adenocarcinoma); assay: as above
Procedure, shortened: as §1

KYM-1 (Rhabdomyosarcoma) [39] = assay: as above
Procedure, shortened: as §1

[40] = tested on: NCI-H1755 (Lung Adenocarcinoma); assay: as above
Procedure, shortened: as §1
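Wherever Bliss excess, mean over the matrix is given: after 72 h of two-drug dosing.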

Compound	Bliss excess [1]	Bliss excess [2]	Bliss excess (CHL-1 (Melanoma) [3])	Bliss excess [4]	Bliss excess [5]	Bliss excess [6]	Bliss excess [7]	Bliss excess [8]	Bliss excess [9]	Bliss excess [10]	Bliss excess [11]	Bliss excess [12]	Bliss excess [13]	Bliss excess [14]	Bliss excess [15]	Bliss excess [16]	Bliss excess [17]	Bliss excess [18]	Bliss excess (KYM-1 (Rhabdomyosarcoma) [19])	Bliss excess [20]	combination Emax [21]	combination Emax [22]	combination Emax (CHL-1 (Melanoma) [23])	combination Emax [24]	combination Emax [25]	combination Emax [26]	combination Emax [27]	combination Emax [28]	combination Emax [29]	combination Emax [30]	combination Emax [31]	combination Emax [32]	combination Emax [33]	combination Emax [34]	combination Emax [35]	combination Emax [36]	combination Emax [37]	combination Emax [38]	combination Emax (KYM-1 (Rhabdomyosarcoma) [39])	combination Emax [40]
CS(=O)(=O)CCNCc1ccc(-c2ccc3ncnc(Nc4ccc(OCc5cccc(F)c5)c(Cl)c4)c3c2)o1 [Lapatinib] + Cn1cnc2c(F)c(Nc3ccc(Br)cc3Cl)c(C(=O)NOCCO)cc21 [Selumetinib] (first compound max 10 µM, 7x7, partner max 10 µM)	0.0378	0.0604	-0.0114	-0.0822	-0.0289	-0.0554	0.0001	-0.0658	-0.0116	0.0352	-0.0833	0.0206	0.0326	-0.0414	-0.0411	-0.0319	-0.0589	-0.004	0.0148	-0.0173	0.584	0.805	0.475	0.637	0.729	0.121	0.652	0.349	0.126	0.912	0.586	0.989	0.749	0.697	0.281	0.214	0.579	0.572	0.407	0.539
O=C(c1cc(Cc2n[nH]c(=O)c3ccccc23)ccc1F)N1CCN(C(=O)C2CC2)CC1 [Olaparib] + CC1(C)CCC(CN2CCN(c3ccc(C(=O)NS(=O)(=O)c4ccc(NCC5CCOCC5)c([N+](=O)[O-])c4)c(Oc4cnc5[nH]ccc5c4)c3)CC2)=C(c2ccc(Cl)cc2)C1 [Venetoclax] (first compound max 10 µM, 7x7, partner max 1 µM)	0.0365	-0.0386	-0.0355	0.0685	-0.0377	-0.0541	0.257	-0.0346	0.0141	-0.003	-0.0398	-0.0071	-0.0278	-0.0328	-0.0606	-0.039	-0.0134	-0.0251	-0.0388	-0.0395	1	0.107	0.171	0.946	0.204	0.271	0.976	0.259	1	0.211	0.282	0.142	0.177	0.162	0.141	0.0967	0.198	0.209	0.446	0.126
O=C(c1cc(Cc2n[nH]c(=O)c3ccccc23)ccc1F)N1CCN(C(=O)C2CC2)CC1 [Olaparib] + CN(CC[C@H](CSC1=CC=CC=C1)NC2=C(C=C(C=C2)S(=O)(=O)NC(=O)C3=CC=C(C=C3)N4CCC(CC4)[C@H](C5=CC=CC=C5C6=CC=C(C=C6)Cl)O)S(=O)(=O)C(F)(F)F)CCO [AZD4320] (first compound max 10 µM, 7x7, partner max 1 µM)	-0.0261	-0.0488	-0.0175	0.0456	-0.0165	-0.0701	0.0827	-0.0372	0.0047	-0.0603	-0.0382	-0.0113	-0.0367	-0.0394	-0.0717	-0.0377	0.0148	-0.0338	-0.0543	-0.0387	1	0.198	0.2	0.999	0.546	0.659	1	0.213	1	0.617	0.534	0.199	0.173	0.158	0.228	0.151	0.164	0.39	0.576	0.159
O=C(c1cc(Cc2n[nH]c(=O)c3ccccc23)ccc1F)N1CCN(C(=O)C2CC2)CC1 [Olaparib] + COc1nnc2ccc(N3CCC(c4ccc(OCCN5CCN(C)C(=O)[C@H]5C)cc4)CC3)nn12 [AZD5153] (first compound max 10 µM, 7x7, partner max 1 µM)	0.0304	-0.0683	-0.0554	-0.0113	-0.0144	-0.0406	-0.0231	-0.0132	-0.032	-0.0335	-0.0288	-0.0284	-0.0341	-0.0549	-0.0857	-0.0305	-0.0004	-0.0174	-0.0479	-0.0453	0.749	0.591	0.418	0.852	0.402	0.671	0.898	0.564	0.875	0.8	0.536	0.431	0.593	0.694	0.415	0.389	0.397	0.575	0.862	0.498
